Test results as given in patent US12404251B2, “Small molecule compound” (Cerepeut, Inc., priority 2017, dated 2025).
“Also recorded” adds a separate entry of the source.

Columns and labels:
[1] = tested on: HCT116; experiment: CellTiter-Glo cell viability, HCT116 colorectal cancer model; type: cell-based, human; conditions: HCT116, 72 hour incubation
Experimental: (§1) Cell seeding (Day “−1”): The cell density of eight adherent cell lines was adjusted according to supplier-recommended information. 50 μL cells were seeded in four 384-well-plates, and 50 μL DPBS was added to the edge wells.
(§2) Compound preparation (Day 0): All test compounds were dissolved in DMSO and stored in a nitrogen cabinet. The stock concentration of the test compounds was 120 mM. The stock concentration of the reference compounds was 10 mM. The reference compound paclitaxel was diluted with DMSO to provide a 400 μM stock solution.
(§3) Cell treatment with test compounds (Day 0): Test compounds (125 nL in DMSO) were added to the wells using an ECHO liquid handling system (Labcyte Inc.) and serially diluted by three fold, providing 10 doses in each series with a maximum concentration of 300 μM. […]
(§4) Assay (Day 3): After the cells were treated with the compounds for 72 hours, the plates were equilibrated at room temperature for approximately 30 minutes. 25 μL of CellTiter Glo reagent was added to each well, and the luminescence in each well was measured after 10 min using an ENVISION fluorescence plate reader (PerkinElmer). […]
(§5) To evaluate the anti-tumor activity of CPT-2008, the growth inhibitory effect of the compound was measured in various human cancer cell lines after 72 hour incubation. […] The data recorded for the paclitaxel reference compound were consistent with the historical published data.

[2] = tested on: NCI-H82; experiment: CellTiter-Glo cell viability, NCI-H82 SCLC model; type: cell-based, human; conditions: NCI-H82, 72 hour incubation
Experimental: as §1, §2, §3, §4, §5

[3] = tested on: MCF7; experiment: CellTiter-Glo cell viability, MCF7 breast cancer model; type: cell-based, human; conditions: MCF7, 72 hour incubation
Experimental: as §1, §2, §3, §4, §5

[4] = tested on: NCI-H1299; experiment: CellTiter-Glo cell viability, NCI-H1299 NSCLC model; type: cell-based, human; conditions: NCI-H1299, 72 hour incubation
Experimental: as §1, §2, §3, §4, §5

[5] = Pharmacokinetics in Sprague-Dawley rats (plasma and brain); type: in vivo, rat; conditions: for bioavailability: Sprague-Dawley, rat, in vivo
Experimental: Sprague-Dawley rats were administered CPT-2008 by IV or PO. Blood samples (about 1 mL) were collected via cardiac puncture after euthanasia by carbon dioxide inhalation at 5 min, 15 min, 30 min, 1 h, 2 h, 4 h, 8 h, 24 h of post dose. Blood samples were placed into tubes containing heparin sodium and centrifuged at 3500 rpm for 10 minutes at 4° C. to separate plasma from the samples. Following centrifugation, the resulting plasma was transferred to labeled tubes and stored frozen at −80° C. pending bioanalysis. The brain each studied animal at each time point was collected after the animal was euthanized by carbon dioxide inhalation. The whole tissue was harvested, excised and then placed into one tube per tissue per animal. The tissue samples were placed on dry ice and then stored at −80° C. until bioanalysis.

[6] = in vitro; type: in vitro ADME; conditions: human
[7] = tested on: Jurkat; experiment: CellTiter-Glo cell viability, Jurkat T cell leukemia model; type: cell-based, human; conditions: 72 hour incubation
Experimental: as §1, §2, §3, §4, §5

[8] = tested on: Sprague-Dawley rats; experiment: Rat middle cerebral artery occlusion (MCAO) stroke model; type: in vivo; conditions: rat MCAO 1.5 h, 24 h reperfusion; 25-100 mg/kg intraperitoneally 0 h and 8 h after reperfusion; TTC staining; compared with edaravone 6 mg/kg
Experimental: Edaravone (3-methyl-1-phenyl-2-pyrazolin-5-one) is a reactive oxygen species (ROS) scavenger approved for the treatment of stroke and ALS in Japan, and for the treatment of ALS in the United States. The efficacy of CPT-2008 for preventing brain damage in a rat middle cerebral artery occlusion (MCOA) model was compared with the efficacy of edaravone. Sprague-Dawley rats were dosed with vehicle, edaravone (6 mg/kg), or CPT-2008 (25-100 mg/kg), and the level of infarcted brain tissue was assessed. In this study rats underwent middle cerebral artery occlusion (MCAO) for 1.5 h followed by 24 h reperfusion. CPT-2008 was given intraperitoneally 0 h and 8 h after reperfusion, and behavior deficits and brain insult were assessed by Longa score scale and TTC staining, respectively. […] It is believed that the improved benefit of CPT-2008 is due, in part, to prevention ROS formation in brain tissue mitochondria.

[9] = tested on: A549; experiment: CellTiter-Glo cell viability, A549 NSCLC model; type: cell-based, human; conditions: A549, 72 hour incubation
Experimental: as §1, §2, §3, §4, §5

[10] = tested on: T98G; experiment: CellTiter-Glo cell viability, T98G glioblastoma model; type: cell-based, human; conditions: 72 hour incubation
Experimental: as §1, §2, §3, §4, §5

[11] = in vitro; type: in vitro ADME; conditions: human; remark: listed apart in the source
[12] = tested on: Molt-4; experiment: CellTiter-Glo cell viability, Molt-4 T-ALL model; type: cell-based, human; conditions: Molt-4, 72 hour incubation
Experimental: as §1, §2, §3, §4, §5

[13] = tested on: GBM cells; experiment: Mitochondrial morphology, TOM-20 immunostaining; type: cell-based, human; conditions: vs DMSO control (FIG. 16)
Excerpt: GBM cells treated with DMSO (control) or CPT-2008 in DMSO were immunostained for TOM-20 to reveal mitochondrial morphology.
(§6) CPT-2008 affects mitochondrial function. […] Given the important role of mitochondria in maintaining cancer cells, especially cancer stem cells, the effects of CPT-2008 on a number of mitochondrial parameters in human glioblastoma (GBM) cells were texted next. First, the effects of CPT-2008 on mitochondrial ROS level were studied. For this purpose, the mito-SOX dye was used. Mito-SOX can specifically monitor mitochondrial ROS levels. […] The effect of CPT-2008 on mitochondrial membrane potential, a key factor that determines mitochondrial health and activity, was also measured using the TRM dye. […] The effect of CPT-2008 on mitochondrial calcium homeostasis was also measured using the Rhod-2AM dye, which specifically monitors mitochondrial calcium levels. […] The effect of CPT-2008 on mitochondrial morphology was also measured using immunostaining of the mitochondrial outer membrane marker Tom20. […] Finally, the effect of CPT-2008 on the self-renewal of GBM cells was tested.

[14] = tested on: NCI-H446; experiment: CellTiter-Glo cell viability, NCI-H446 SCLC model; type: cell-based, human; conditions: NCI-H446, 72 hour incubation
Experimental: as §1, §2, §3, §4, §5

[15] = tested on: paclitaxel-treated rats; experiment: Paclitaxel-induced neuropathic pain model, paw withdrawal test; type: in vivo, rat; conditions: 100 mg/kg intraperitoneal; 1.5 h, 3 h, 4.5 h post dosing; vs vehicle (FIG. 20)
Experimental: An estimated 30-40% of cancer patients undergoing chemotherapy experience peripheral neuropathic pain, a neuroinflammation-induced debilitating side effect that causes patients to stop their treatment early or take lower doses. The effects of CPT-2008 in reducing neuropathic pain were studied in paclitaxel-treated rats. After paclitaxel treatment for 8 days, Sprague-Dawley rats were housed for additional days. On day 22, 16 rats were randomly separated into two groups. One group was dosed with vehicle, and the other group was dosed via intraperitoneal injection with CPT-2008 at 100 mg/kg. Pain (mechanical allodynia) test subjects was assessed using a paw withdrawal test (PWT) as described by Xie (“Activation of notch signaling mediates the induction and maintenance of mechanical allodynia in a rat model of neuropathic pain.” Molecular Medicine Reports 12: 639-644, 2015). Rats were measured for paw withdrawal threshold post dosing of test compound at 1.5 h, 3 h, and 4.5 h.

[16] = tested on: U118MG; experiment: CellTiter-Glo cell viability, U118MG glioblastoma model; type: cell-based, human; conditions: 72 hour incubation
Experimental: as §1, §2, §3, §4, §5

[17] = tested on: human GBM cells; experiment: Mitochondrial calcium, Rhod-2AM staining; type: cell-based; conditions: vs DMSO control (FIG. 14)
Excerpt: GBM cells treated with DMSO vehicle (control) or with CPT-2008 in DMSO were stained with Rhod-2AM to probe mitochondrial calcium (mito-Ca^2+) level. CPT-2008 elevated mito-Ca^2+.
as §6

[18] = tested on: human GBM cells; experiment: Mitochondrial ROS, Mito-SOX staining; type: cell-based; conditions: vs DMSO control (FIG. 15)
Excerpt: GBM cells treated with DMSO vehicle (control) or with CPT-2008 in DMSO were stained with Mito-SOX to probe mitochondrial ROS level.
as §6

[19] = tested on: A2780; experiment: CellTiter-Glo cell viability, A2780 ovarian cancer model; type: cell-based, human; conditions: A2780, 72 hour incubation
Experimental: as §1, §2, §3, §4, §5

[20] = tested on: human GBM cells; experiment: Self-renewal of GBM cells (neurosphere formation); type: cell-based; conditions: 20 uM CPT-2008 vs DMSO vehicle (FIG. 18)
Experimental: Control: cells treated with DMSO vehicle; CPT-2008: cells treated with 20 uM CPT-2008.
as §6

[21] = tested on: human GBM cells; experiment: Mitochondrial membrane potential, TMRM staining; type: cell-based; conditions: vs DMSO vehicle (FIG. 17)
Excerpt: GBM cells treated with DMSO vehicle or with CPT-2008 in DMSO were stained with TMRM to probe mitochondrial membrane potential.
as §6

SMILES: COc1cc(-n2c(S)nc3cc(OC)c(Cl)cc3c2=O)c(Cl)cc1Cl [CPT-2008, 6-chloro-3-(2,4-dichloro-5-methoxyphenyl)-2-mercapto-7-methoxyquinazolin-4(3H)-one]
- IC50 [1]: low μM range
- IC50 [2]: nM range
- IC50 [3]: low μM range
- IC50 [4]: low μM range
- crossing of the blood brain barrier ([5]; Sprague-Dawley rats, IV or PO (FIG. 21A, 21B)): efficiently cross the blood brain barrier
- bioavailability ([5]; brain bioavailability): 39%
- bioavailability ([5]; plasma bioavailability): 94.5%
- stability in hepatocytes [6]: excellent stability
- half-life ([6]; hepatocytes, half-life): ~94.3 h
- IC50 [7]: nM range
- level of infarcted (dead) brain tissue [8]: reduced levels of dead brain tissue
- IC50 [9]: low μM range
- IC50 [10]: low μM range
- stability in microsomes [11]: excellent stability
- half-life ([11]; microsomes): ~3.6 h
- IC50 [12]: low μM range
- mitochondrial morphology [13]: dramatic fragmentation of mitochondria; also recorded: induced mitochondrial size reduction
- IC50 [14]: nM range
- paw withdrawal threshold (mechanical allodynia) [15]: increased threshold values
- IC50 [16]: low μM range
- mitochondrial calcium (mito-Ca2+) level [17]: caused an increase; also recorded: elevated
- mitochondrial ROS level [18]: significant increase; also recorded: significantly elevated
- IC50 [19]: nM range
- self-renewal of GBM cells (ability to form neurospheres) [20]: significantly inhibited; also recorded: lost such ability
- mitochondrial membrane potential [21]: dramatic reduction; also recorded: dramatically reduced
